For data set [1], the target named is Endoplasmin (Canis lupus familiaris, UniProt P41148). Put plainly: Displacement of FITC-GDA from recombinant canine Grp94 expressed in baculovirus infected Sf21 insect cells after 24 hrs by fluorescence polarization assay. The following applies: read-out: Kd(app). In general terms: In fluorescence polarisation assays a small probe gives low polarisation when free and higher when bound to something large.

The target in data set [2] is Heat shock protein HSP 90-alpha (Homo sapiens, UniProt P07900). The data set is described as follows: Displacement of FITC-GDA from Hsp90alpha (unknown origin) after 24 hrs by fluorescence polarization assay. The note with it: read-out: Kd(app).
Data set [3] relates to RPMI-8226. The data set is described as follows: Growth inhibition of human RPMI8226 cells after 72 hrs by MTS/PMS assay. The format is functional. The following applies: RPMI-8226, 72 h.
The target of data set [4] is T1, Heat shock protein HSP90 (Homo sapiens, UniProt P07900+P08238). The data set is described as follows: Inhibition of Hsp90 in human RPMI8226 cells assessed as induction of Akt degradation at 0.75 to 7.5 uM after 24 hrs by Western blot analysis. The format is cell-based.
The target of data set [5] is T1, Heat shock protein HSP90. The data set is described as follows: Inhibition of Hsp90 in human RPMI8226 cells assessed as induction of Hsp70 expression at 0.75 to 7.5 uM after 24 hrs by Western blot analysis. The format is cell-based. (In general: In western blotting, separated proteins are transferred to a membrane and probed.)

Experimental findings from ChEMBL document CHEMBL4130519, “Resorcinol-Based Grp94-Selective Inhibitors” (ACS Med Chem Lett, 2017) are described below.

What is called GI50 is the concentration at which growth is held to half of that of the control. Higher therefore signals less potent growth inhibition.

Structures are written as SMILES.

Chain of Endoplasmin (P41148 whole entry): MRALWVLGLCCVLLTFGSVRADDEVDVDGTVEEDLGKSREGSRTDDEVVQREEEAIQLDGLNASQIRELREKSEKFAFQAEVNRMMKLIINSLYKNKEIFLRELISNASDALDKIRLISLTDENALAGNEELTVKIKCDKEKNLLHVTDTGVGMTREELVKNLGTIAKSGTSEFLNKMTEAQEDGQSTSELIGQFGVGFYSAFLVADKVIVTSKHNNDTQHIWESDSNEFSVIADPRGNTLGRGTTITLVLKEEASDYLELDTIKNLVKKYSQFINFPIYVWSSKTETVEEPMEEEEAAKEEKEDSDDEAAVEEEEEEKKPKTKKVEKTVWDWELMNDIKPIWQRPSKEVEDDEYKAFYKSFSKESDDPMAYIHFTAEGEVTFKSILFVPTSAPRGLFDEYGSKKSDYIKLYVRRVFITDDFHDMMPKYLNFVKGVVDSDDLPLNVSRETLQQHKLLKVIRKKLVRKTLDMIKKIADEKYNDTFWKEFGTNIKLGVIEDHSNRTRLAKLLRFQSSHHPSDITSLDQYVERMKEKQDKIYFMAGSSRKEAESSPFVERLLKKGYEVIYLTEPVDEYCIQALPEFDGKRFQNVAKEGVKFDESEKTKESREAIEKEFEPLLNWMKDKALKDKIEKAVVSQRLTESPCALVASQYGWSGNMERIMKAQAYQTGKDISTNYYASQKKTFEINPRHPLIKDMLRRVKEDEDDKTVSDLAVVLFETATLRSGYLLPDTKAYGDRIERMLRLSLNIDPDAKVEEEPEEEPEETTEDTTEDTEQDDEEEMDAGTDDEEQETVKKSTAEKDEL

As to `O=C(c1cc(-c2ccccc2)c(O)cc1O)N1Cc2ccccc2C1`, the Kd in data set [1] and in data set [2] was above 100000 nM each time. Besides, the GI50 in data set [3] was above 25000 nM.

Turning to `O=C(c1cc(Sc2ccccc2O)c(O)cc1O)N1Cc2ccccc2C1`, the Kd in data set [1] turned out to be 29 nM; in data set [2], 65 nM.

`O=C(c1cc(Sc2ccc(Cl)cc2Cl)c(O)cc1O)N1Cc2ccccc2C1`: the results for the Kd in data set [1] and in data set [2] were 59 nM and 460 nM, respectively.

For the compound `O=C(c1cc(Sc2ccccc2)c(O)cc1O)N1Cc2ccccc2C1`, the Kd in data set [1] came to 13 nM; in data set [2] it was 26 nM.

For `COC(=O)c1c(O)cc(O)c(Cl)c1CCc1nccn1Cc1ccccc1`, the GI50 in data set [3] was determined as 10200 nM.

Regarding `O=C(c1cc(N2CCc3ccccc32)c(O)cc1O)N1Cc2ccccc2C1`, the Kd is 9890 nM in data set [1] and above 50000 nM in data set [2].

Regarding `Cc1ccc(Cc2cc(C(=O)N3Cc4ccccc4C3)c(O)cc2O)cc1`, the Kd in data set [1] and in data set [2] was 40 nM in each case. Besides, the GI50 in data set [3] worked out at 2700 nM.

For the compound `O=C(c1cc(Sc2ccc(O)cc2)c(O)cc1O)N1Cc2ccccc2C1`, the results for the Kd in data set [1] and in data set [2] were 70 nM and 52 nM, respectively.

On to `Cc1ccc(Sc2cc(C(=O)N3Cc4ccccc4C3)c(O)cc2O)cc1C`, for which the Kd came out at 21 nM in data set [1] and 66 nM in data set [2].

On to `O=C(c1cc(Sc2cc(Cl)cc(Cl)c2)c(O)cc1O)N1Cc2ccccc2C1`, for which the Kd in data set [1] was 31 nM; in data set [2], 29 nM.

For `COc1cccc(Sc2cc(C(=O)N3Cc4ccccc4C3)c(O)cc2O)c1`, the Kd in data set [1] amounted to 34 nM; in data set [2] it was 37 nM. Moreover, in data set [3], the GI50 turned out to be 1900 nM.

For `O=C(c1cc(Br)c(O)cc1O)N1Cc2ccccc2C1`, in data set [1], the Kd came to 20 nM.

As for `O=C(c1cc(Cc2ccc(F)cc2)c(O)cc1O)N1Cc2ccccc2C1`, the Kd in data set [1] came to 8 nM; in data set [2], 77 nM. Moreover, in data set [3], the GI50 worked out at 1400 nM. Besides, the “inhibition (INH)” value in data set [4] and in data set [5] was “Not Active” throughout.

`O=C(c1cc(Cc2ccccc2)c(O)cc1O)N1Cc2ccccc2C1`: the Kd in data set [1] was found to be 15 nM; in data set [2], 66 nM. In addition, the GI50 in data set [3] was found to be 3700 nM.

On to `O=C(c1cc(Cc2ccccc2Cl)c(O)cc1O)N1Cc2ccccc2C1`, for which the Kd worked out at 60 nM in data set [1] and 200 nM in data set [2].

Compound `COC1=C2C[C@@H](C)C[C@H](OC)[C@H](O)[C@@H](C)/C=C(\C)[C@H](OC(N)=O)[C@@H](OC)/C=C\C=C(/C)C(=O)NC(=CC1=O)C2=O` [GELDANAMYCIN] came in with a GI50 in data set [3] of 3 nM.

Regarding `Cc1ccc(C)c(Sc2cc(C(=O)N3Cc4ccccc4C3)c(O)cc2O)c1`, the Kd in data set [1] worked out at 29 nM; in data set [2], 31 nM.

In the case of `O=C(c1cc(Cc2ccc(Cl)cc2)c(O)cc1O)N1Cc2ccccc2C1`, the Kd came to 13 nM in data set [1] and 60 nM in data set [2]. Moreover, the GI50 in data set [3] was found to be 3000 nM.

In the case of `CCOC(=O)c1cc(C(=O)N2Cc3ccccc3C2)c(O)cc1O`, the figures for the Kd in data set [1] and in data set [2] were 770 nM and 3520 nM, respectively.

`Cc1ccc(Sc2cc(C(=O)N3Cc4ccccc4C3)c(O)cc2O)c(C)c1`: the Kd stood at 30 nM in data set [1] and 70 nM in data set [2].

For `COC(=O)c1cc(C(=O)N2Cc3ccccc3C2)c(O)cc1O`, the Kd in data set [1] and in data set [2] was above 10000 nM throughout. Also, in data set [3], growth was halved (GI50) at 13800 nM.
